# PubChem BioAssay AID342 (DTP/NCI, 2004)
# Values joined by “and” are separate entries in the source; they are usually repeats but may differ in a detail not shown here. Identical values can stand only once.
# Tested on: Swiss mice, Sarcoma 180 sc, mean tumor weight T/C
# Experiment: NCI In Vivo Anticancer Drug Screen. Data for tumor model Sarcoma 180 (subcutaneous) in Swiss mice
# Details: endpoint: mean tumor weight, higher = larger tumour
# Method in brief: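 Transplantable tumors were established in mice, compound was given, then survival or tumor size was recorded. The treated value was divided by the vehicle-control value.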
# [1] = dose: 50.0 mg/kg/injection, schedule: Q#A X014 (sc), vehicle: steriod suspending solution
# [2] = dose: 50.0 mg/kg/injection, schedule: Q01DX007 (ip), vehicle: carboxymethylcellulose (CMC)
smiles,measurement,setting,value
C[C@H]1C[C@@H]2[C@H]([C@@H](O)C[C@@]3(C)[C@H]2CC[C@]3(O)C(=O)CO)[C@@]2(C)C=CC(=O)C=C12,T/C,"dose: 6.25 mg/kg/injection, schedule: Q#A X014 (sc), vehicle: steriod suspending solution",82 % of control
same,T/C,"dose: 12.5 mg/kg/injection, schedule: Q01DX007 (sc), vehicle: water",45 % of control
same,T/C,"dose: 12.5 mg/kg/injection, schedule: Q#A X014 (sc), vehicle: steriod suspending solution",40 % of control
same,T/C,"dose: 25.0 mg/kg/injection, schedule: Q01DX007 (sc), vehicle: water",41 % of control
same,T/C,"dose: 25.0 mg/kg/injection, schedule: Q#A X014 (sc), vehicle: steriod suspending solution",33 % of control
same,T/C,"dose: 50.0 mg/kg/injection, schedule: Q01DX007 (sc), vehicle: water",39 % of control
same,T/C,[1],27 % of control
same,T/C,"dose: 100.0 mg/kg/injection, schedule: Q01DX007 (sc), vehicle: water",18 % of control
same,T/C,"dose: 100.0 mg/kg/injection, schedule: Q#A X014 (sc), vehicle: steriod suspending solution",17 % of control
N#[N+]c1cnc([O-])[nH]c1=O,T/C,"dose: 1.0 mg/kg/injection, schedule: Q01DX007 (ip), vehicle: carboxymethylcellulose (CMC)",103 % of control
same,T/C,"dose: 2.0 mg/kg/injection, schedule: Q01DX007 (ip), vehicle: carboxymethylcellulose (CMC)",102 % of control
same,T/C,"dose: 4.0 mg/kg/injection, schedule: Q01DX007 (ip), vehicle: carboxymethylcellulose (CMC)",105 % of control
same,T/C,"dose: 8.0 mg/kg/injection, schedule: Q01DX007 (ip), vehicle: carboxymethylcellulose (CMC)",95 % of control
[N-]=[N+]=[N-],T/C,"dose: 1.5 mg/kg/injection, schedule: Q01DX007 (ip), vehicle: carboxymethylcellulose (CMC)",88 % of control
same,T/C,"dose: 3.0 mg/kg/injection, schedule: Q01DX007 (ip), vehicle: carboxymethylcellulose (CMC)",61 % of control
same,T/C,"dose: 6.0 mg/kg/injection, schedule: Q01DX007 (ip), vehicle: carboxymethylcellulose (CMC)",76 % of control
same,T/C,"dose: 12.0 mg/kg/injection, schedule: Q01DX007 (ip), vehicle: carboxymethylcellulose (CMC)",69 % of control
Nc1cc(SCc2ccccc2)nc(N)n1,T/C,"dose: 18.75 mg/kg/injection, schedule: Q#A X014 (ip), vehicle: methylcellulose (MC)",52 % of control
same,T/C,"dose: 37.5 mg/kg/injection, schedule: Q#A X014 (ip), vehicle: methylcellulose (MC)",70 % of control
same,T/C,"dose: 66.5 mg/kg/injection, schedule: Q#A X014 (ip), vehicle: methylcellulose (MC)",29 % of control
same,T/C,"dose: 75.0 mg/kg/injection, schedule: Q#A X014 (ip), vehicle: methylcellulose (MC)",68 % of control
same,T/C,"dose: 100.0 mg/kg/injection, schedule: Q#A X014 (ip), vehicle: methylcellulose (MC)",40 % of control
same,T/C,"dose: 225.0 mg/kg/injection, schedule: Q#A X014 (ip), vehicle: methylcellulose (MC)",35 % of control
O=C(NNC(=O)c1cccc2ccccc12)c1cc(Br)ccc1Br,T/C,"dose: 222.0 mg/kg/injection, schedule: Q01DX007 (ip), vehicle: carboxymethylcellulose (CMC)",53 % of control
same,T/C,"dose: 333.0 mg/kg/injection, schedule: Q01DX007 (ip), vehicle: carboxymethylcellulose (CMC)",65 % of control
same,T/C,"dose: 500.0 mg/kg/injection, schedule: Q01DX007 (ip), vehicle: carboxymethylcellulose (CMC)",26 % of control
same,T/C,"dose: 750.0 mg/kg/injection, schedule: Q01DX007 (ip), vehicle: carboxymethylcellulose (CMC)",37 % of control
Cc1cc2nc3c(=O)[nH]c(=O)nc-3n(CC(O)C(O)C(O)C(O)CO)c2cc1C (stereo not drawn),T/C,"dose: 31.25 mg/kg/injection, schedule: Q01DX007 (ip), vehicle: carboxymethylcellulose (CMC)",87 % of control
same,T/C,"dose: 38.25 mg/kg/injection, schedule: Q01DX007 (ip), vehicle: carboxymethylcellulose (CMC)",54 % of control
same,T/C,"dose: 62.5 mg/kg/injection, schedule: Q01DX007 (ip), vehicle: carboxymethylcellulose (CMC)",66 % of control
same,T/C,"dose: 76.5 mg/kg/injection, schedule: Q01DX007 (ip), vehicle: carboxymethylcellulose (CMC)",48 % of control
same,T/C,"dose: 125.0 mg/kg/injection, schedule: Q01DX007 (ip), vehicle: carboxymethylcellulose (CMC)",83 % of control
same,T/C,"dose: 153.0 mg/kg/injection, schedule: Q01DX007 (ip), vehicle: carboxymethylcellulose (CMC)",63 % of control
same,T/C,"dose: 250.0 mg/kg/injection, schedule: Q01DX007 (ip), vehicle: carboxymethylcellulose (CMC)",60 % of control
same,T/C,"dose: 306.0 mg/kg/injection, schedule: Q01DX007 (ip), vehicle: carboxymethylcellulose (CMC)",57 % of control
Nc1nc(=S)c2ncn(C3OC(CO)C(O)C3O)c2[nH]1 (stereo not drawn),T/C,"dose: 0.62 mg/kg/injection, schedule: Q#A X014 (ip), vehicle: carboxymethylcellulose (CMC)",86 % of control
same,T/C,"dose: 1.25 mg/kg/injection, schedule: Q#A X014 (ip), vehicle: carboxymethylcellulose (CMC)",91 % of control
same,T/C,"dose: 1.3 mg/kg/injection, schedule: Q#A X014 (ip), vehicle: carboxymethylcellulose (CMC)",86 % of control and 95 % of control
same,T/C,"dose: 2.0 mg/kg/injection, schedule: Q#A X014 (ip), vehicle: carboxymethylcellulose (CMC)",83 % of control and 94 % of control
same,T/C,"dose: 2.5 mg/kg/injection, schedule: Q#A X014 (ip), vehicle: carboxymethylcellulose (CMC)",86 % of control
same,T/C,"dose: 2.65 mg/kg/injection, schedule: Q#A X014 (ip), vehicle: carboxymethylcellulose (CMC)",51 % of control and 74 % of control
same,T/C,"dose: 5.0 mg/kg/injection, schedule: Q#A X014 (ip), vehicle: carboxymethylcellulose (CMC)",90 % of control
CCCOc1ccc2c(c1)CC[C@@H]1[C@@H]2CC[C@@]2(C)[C@H]1CC[C@]2(C)O,T/C,"dose: 0.5 mg/kg/injection, schedule: Q#A X014 (sc), vehicle: steriod suspending solution",110 % of control
same,T/C,"dose: 5.0 mg/kg/injection, schedule: Q#A X014 (sc), vehicle: steriod suspending solution",63 % of control
same,T/C,[1],84 % of control
Nc1nc(N)c2[nH]cnc2n1,T/C,"dose: 6.25 mg/kg/injection, schedule: Q#A X014 (ip), vehicle: carboxymethylcellulose (CMC)",106 % of control
same,T/C,"dose: 11.25 mg/kg/injection, schedule: Q#A X014 (ip), vehicle: carboxymethylcellulose (CMC)",103 % of control
same,T/C,"dose: 22.5 mg/kg/injection, schedule: Q#A X014 (ip), vehicle: carboxymethylcellulose (CMC)",83 % of control
same,T/C,"dose: 25.0 mg/kg/injection, schedule: Q#A X014 (ip), vehicle: carboxymethylcellulose (CMC)",121 % of control
same,T/C,"dose: 45.0 mg/kg/injection, schedule: Q#A X014 (ip), vehicle: carboxymethylcellulose (CMC)",68 % of control
same,T/C,"dose: 90.0 mg/kg/injection, schedule: Q#A X014 (ip), vehicle: carboxymethylcellulose (CMC)",48 % of control
C=CCn1cnc2c(=S)nc[nH]c21,T/C,"dose: 31.0 mg/kg/injection, schedule: Q01DX007 (ip), vehicle: carboxymethylcellulose (CMC)",86 % of control
same,T/C,"dose: 62.0 mg/kg/injection, schedule: Q01DX007 (ip), vehicle: carboxymethylcellulose (CMC)",54 % of control
CCCCCCC(=O)NC1=C(N2CC2)C(=O)C(NC(=O)CCCCCC)=C(N2CC2)C1=O,T/C,"dose: 27.75 mg/kg/injection, schedule: Q#A X014 (ip), vehicle: methylcellulose (MC)",42 % of control and 50 % of control and 56 % of control
same,T/C,"dose: 41.5 mg/kg/injection, schedule: Q#A X014 (ip), vehicle: methylcellulose (MC)",38 % of control and 50 % of control and 53 % of control
same,T/C,"dose: 62.5 mg/kg/injection, schedule: Q#A X014 (ip), vehicle: methylcellulose (MC)",31 % of control
O=CC1CO1 (stereo not drawn),T/C,[2],123 % of control
CO[C@H]1CC[C@@]2(C)[C@@H](CC[C@H]3[C@@H]4C[C@H](O)C[C@@]4(C)CC[C@@H]32)C1,T/C,"dose: 0.01 mg/kg/injection, schedule: Q#A X014 (sc), vehicle: olive oil, sesame oil, peanut oil",121 % of control
same,T/C,"dose: 0.05 mg/kg/injection, schedule: Q#A X014 (sc), vehicle: olive oil, sesame oil, peanut oil",72 % of control
same,T/C,"dose: 0.25 mg/kg/injection, schedule: Q#A X014 (sc), vehicle: olive oil, sesame oil, peanut oil",112 % of control
same,T/C,"dose: 50.0 mg/kg/injection, schedule: Q#A X014 (ip), vehicle: distilled water + alcohol",95 % of control
Cc1nnc2ncnc(N)c2n1,T/C,[2],106 % of control
same,T/C,"dose: 75.0 mg/kg/injection, schedule: Q01DX007 (ip), vehicle: carboxymethylcellulose (CMC)",105 % of control
